Laboratory results: patent US11072628B2, “Nucleoside analogues for the treatment of parasitic infections” (UNIVERSITEIT GENT, priority 2017, dated 2021)
Where two headings read alike, the source gives them in different places.

Legend:
T. brucei Squib 427 = experiment: In vitro drug susceptibility, T. brucei Squib 427 (resazurin); format: cell-based, Trypanosoma brucei brucei; conditions: Trypanosoma brucei
Description: (§1) All trypanosome strains were cultured in the standard HMI-9 medium supplemented with 10% fetal bovine serum (FBS) at 37° C. in a 5% CO2 atmosphere.

[1] = test system: T. b. rhodesiense STIB-900; experiment: In vitro drug susceptibility, T. b. rhodesiense STIB-900 (resazurin); format: cell-based, Trypanosoma brucei rhodesiense; conditions: Trypanosoma brucei, RHODESIENSE
Description: as §1

[2] = Cytotoxicity against MRC-5 fibroblasts; conditions: human, MRC-5 fibroblasts, cytotoxicity
Description: Cytotoxicity was assayed against MRC-5 fibroblasts. Results are depicted in Tables 4 and 5.

[3] = test system: T. cruzi Tulahuen CL2 β galactosidase strain; experiment: T. cruzi Tulahuen CL2 β galactosidase strain on MRC-5SV2 cells (CPRG); format: cell-based, Trypanosoma cruzi; conditions: Trypanosoma cruzi, TULAHUEN, MRC-5 SV2
Description: All cultures and assays were conducted at 37° C./5% CO2. […] The results were expressed as % reduction in parasite burdens compared to control wells from which an EC50 was calculated.

[4] = test system: T. vaginalis trophozoites (metronidazole susceptible G3 strain); experiment: Trichomonas vaginalis in vitro assay; format: cell-based; conditions: Trichomonas vaginalis; Table 3; average of 2-5 independent replicates
Description: T. vaginalis trophozoites (metronidazole susceptible G3 strain) were grown in vitro in modified Diamond's media (MDM) with 10% heat inactivated horse serum (HIHS) acquired from Gibco Life Technologies. After medium preparation, the pH was adjusted to 6.3-6.4 employing 1.0 M aq. HCl. Parasites cultures were passaged every day by taking 1 mL of cell culture into a 25 mL bottle of fresh media to ensure the cells were kept at the appropriate concentration of ˜2×10^6 cells/mL. The culture flasks were filled completely and tightly capped to provide the cells with an anaerobic environment. The parasites were maintained in incubation at 37° C. When culturing in multiwell plates, the plates were sealed with Nescofilm® and inserted in BD GasPak EZ pouches (BD Diagnostics, UK) in order to create anaerobic conditions. Assays were performed with 5×10^4 trophozoites/well (100 μL) to which compound dilutions were added (100 μL). Outside wells of columns and rows were filled with 200 μL of sterile water. Plates were sealed with Nescofilm® and incubated under anaerobic conditions as described above. After 24 h, 30 μL of assay dye solution (resorufin) was added, and incubated for 1-2 h before being read using Fluostar Optima (BMG Labtech, UK) at an excitation wavelength of 544 nm and an emission wavelength of 620 nm.

[5] = read-out: T. brucei brucei EC50, Table 1, average of 2-4 independent determinations
[6] = Table 2, average of 2-3 independent replicates

Nc1ncnc2c1c(-c1cc(Cl)cc(Cl)c1)cn2[C@@H]1O[C@H](CO)[C@@H](O)[C@H]1O [FH8460, 4-amino-5-(3,5-dichlorophenyl)-N7-(β-D-ribofuranosyl)-pyrrolo[2,3-d]pyrimidine] showed an EC50 (T. brucei Squib 427; read-out: EC50 against T. brucei) of under 10000 nM, an EC50 (T. brucei Squib 427; read-out: T.b. brucei EC50, Table 4, average of 2-6 independent determinations) of 8170 nM and an EC50 ([1]; read-out: T.b. rhod. EC50) of 3660 nM. It also gave an EC50 ([2]; MRC-5 EC50, Table 4) of over 64000 nM, an EC50 ([2]; MRC-5 EC50, Table 5) of over 64000 nM and an EC50 ([3]; Table 5, average of 2-4 independent replicates) of 1720 nM. It also gave a melting point of 219 °C.
In the case of Nc1ncnc2c1c(C#Cc1ccccc1)cn2[C@@H]1O[C@H](CO)C[C@H]1O [FH8504, 4-amino-5-phenylethynyl-N7-(3′-deoxy-β-D-ribofuranosyl)-pyrrolo[2,3-d]pyrimidine], the EC50 (T. brucei Squib 427; [5]) is reported as 300 nM, the EC50 ([1]; read-out: T. brucei rhod. EC50) is reported as 120 nM and the EC50 ([2]; MRC-5 EC50, Table 1) is reported as 9600 nM. For the same compound, the EC50 ([2]; MRC-5 EC50, Table 2) was 9600 nM, the EC50 [3, 6] was 3700 nM and the melting point was 120 °C.
For C#Cc1cn([C@@H]2O[C@H](CO)C[C@H]2O)c2ncnc(N)c12 [FH8505, 4-amino-5-ethynyl-N7-(3′-deoxy-β-D-ribofuranosyl)-pyrrolo[2,3-d]pyrimidine], the EC50 (T. brucei Squib 427; [5]) was 5 nM, the EC50 ([1]; read-out: T. brucei rhod. EC50) was 0.5 nM and the EC50 [3, 6] was 1660 nM. The melting point was 192 °C.
For Nc1ncnc2c1c(-c1ccc(Cl)c(Cl)c1)cn2[C@@H]1O[C@H](CO)C[C@H]1O [FH8513], the EC50 (T. brucei Squib 427; [5]) was 1800 nM, the EC50 ([1]; read-out: T. brucei rhod. EC50) was 1500 nM and the EC50 ([2]; MRC-5 EC50, Table 1) was 13600 nM. For the same compound, the EC50 ([2]; MRC-5 EC50, Table 2) was 13600 nM, the EC50 [3, 6] was 60 nM and the EC50 [4] was 330 nM.
In the case of Nc1ncnc2c1c(C(F)(F)F)cn2[C@@H]1O[C@H](CO)C[C@H]1O [FH9526, 4-amino-5-trifluoromethyl-N7-(3′-deoxy-β-D-ribofuranosyl)-pyrrolo[2,3-d]pyrimidine], the EC50 (T. brucei Squib 427; [5]) is reported as 940 nM, the EC50 ([1]; read-out: T. brucei rhod. EC50) is reported as 1880 nM and the EC50 ([2]; MRC-5 EC50, Table 1) is reported as 660 nM. It also gave an EC50 ([2]; MRC-5 EC50, Table 2) of 660 nM, an EC50 [3, 6] of 2330 nM and a melting point of 167 °C.
With OC[C@@H]1C[C@@H](O)[C@H](n2cc(Br)c3cncnc32)O1 [FH9539, 5-bromo-N7-(3′-deoxy-β-D-ribofuranosyl)-pyrrolo[2,3-d]pyrimidine] the EC50 (T. brucei Squib 427; [5]) was 510 nM, the EC50 ([1]; read-out: T. brucei rhod. EC50) was 910 nM and the EC50 ([2]; MRC-5 EC50, Table 1) was 21000 nM. The EC50 ([2]; MRC-5 EC50, Table 2) was 21000 nM, the EC50 [3, 6] was 36800 nM and the melting point was 186 °C.
Compound Nc1ncnc2c1c(-c1ccc(C(F)(F)F)cc1)cn2[C@@H]1O[C@H](CO)C[C@H]1O [FH9576, 4-amino-5-(4-trifluoromethylphenyl)-N7-(3′-deoxy-β-D-ribofuranosyl)-pyrrolo[2,3-d]pyrimidine] has an EC50 (T. brucei Squib 427; [5]) of 19500 nM, an EC50 ([1]; read-out: T. brucei rhod. EC50) of 6600 nM and an EC50 ([2]; MRC-5 EC50, Table 1) of 40000 nM. The EC50 ([2]; MRC-5 EC50, Table 2) was 40000 nM, the EC50 [3, 6] was 530 nM and the EC50 [4] was 260 nM.
Nc1ncnc2c1c(-c1ccc([N+](=O)[O-])cc1)cn2[C@@H]1O[C@H](CO)C[C@H]1O [FH9582, 4-amino-5-(4-nitrophenyl)-N7-(3′-deoxy-β-D-ribofuranosyl)-pyrrolo[2,3-d]pyrimidine] showed an EC50 (T. brucei Squib 427; [5]) of 2100 nM, an EC50 ([1]; read-out: T. brucei rhod. EC50) of 320 nM and an EC50 ([2]; MRC-5 EC50, Table 1) of over 64000 nM. The EC50 ([2]; MRC-5 EC50, Table 2) was over 64000 nM, the EC50 [3, 6] was 1200 nM and the melting point was 254 °C (dec.).
In the case of Nc1ncnc2c1c(Br)cn2[C@@H]1O[C@H](CSCCO)C[C@H]1O [FH9591, 4-amino-5-bromo-N7-(3′-deoxy-5′-thio-ethan-2-ol-β-D-ribofuranosyl)-pyrrolo[2,3-d]pyrimidine], the EC50 (T. brucei Squib 427; [5]) is reported as 5050 nM, the EC50 ([1]; read-out: T. brucei rhod. EC50) is reported as 710 nM and the EC50 ([2]; MRC-5 EC50, Table 1) is reported as 26500 nM. For the same compound, the EC50 ([2]; MRC-5 EC50, Table 2) was 26500 nM, the EC50 [3, 6] was 33800 nM and the melting point was 164 °C.
CCCC#Cc1cn([C@@H]2O[C@H](CO)C[C@H]2O)c2ncnc(N)c12 [FH9610, 4-amino-5-pent-1-yn-N7-(3′-deoxy-β-D-ribfuranosyl)-pyrrolo[2,3-d]pyrimidine] showed an EC50 (T. brucei Squib 427; [5]) of 320 nM, an EC50 ([1]; read-out: T. brucei rhod. EC50) of 40 nM and an EC50 ([2]; MRC-5 EC50, Table 1) of over 64000 nM. For the same compound, the EC50 ([2]; MRC-5 EC50, Table 2) was over 64000 nM, the EC50 [3, 6] was 4100 nM and the melting point was 127 to 129 °C.
CCCCC#Cc1cn([C@@H]2O[C@H](CO)C[C@H]2O)c2ncnc(N)c12 [FH9611, 4-amino-5-hex-1-yn-N7-(3′-deoxy-β-D-ribfuranosyl)-pyrrolo[2,3-d]pyrimidine] gave an EC50 (T. brucei Squib 427; [5]) of 320 nM, an EC50 ([1]; read-out: T. brucei rhod. EC50) of 60 nM and an EC50 ([2]; MRC-5 EC50, Table 1) of over 64000 nM. The EC50 ([2]; MRC-5 EC50, Table 2) was over 64000 nM, the EC50 [3, 6] was 9700 nM and the melting point was 161 to 163 °C.
